Data published in US10683290B2, “Tricyclic compounds as anticancer agents” (BRISTOL-MYERS SQUIBB COMPANY, priority 2015, dated 2020).

Target: BRD4 (Homo sapiens, UniProt O60885)
Test: biochemical
Format: binding
Settings: one of the FRET assays described; read-out: FRET BRD4 IC50

SMILES	IC50 [nM]
[2H]C([2H])([2H])c1nnn(C)c1-c1cc2c(cc1F)c1ncc(C(C)(C)O)cc1n2C(c1ccc(C)cn1)C1CCOCC1 (single isomer, unassigned) [Example 57, 2-{8-fluoro-7-[4-(^2H3)methyl-1-methyl-1H-1,2,3-triazol-5-yl]-5-[(5-methylpyridin-2-yl)(oxan-4-yl)methyl]-5H-pyrido[3,2-b]indol-3-yl}propan-2-ol]	< 1500
Cc1nnn(C)c1-c1ccc2c3ncc(S(C)(=O)=O)cc3n([C@H](c3ccccc3)C3CCOCC3)c2c1 [Example 26, 5-{3-Methanesulfonyl-5-[(S)-oxan-4-yl(phenyl)methyl]-5H-pyrido[3,2-b]indol-7-yl}-1,4-dimethyl-1H-1,2,3-triazole]	< 5
[2H]C([2H])([2H])c1nnn(C)c1-c1cc2c(cc1F)c1ncc(C(C)(C)O)cc1n2C(c1cc(C)on1)C1CCOCC1 (stereo not shown) [Example 34, 2-{8-Fluoro-5-[(5-methyl-1,2-oxazol-3-yl)(oxan-4-yl)methyl]-7-[4-(^2H3)methyl-1-methyl-1H-1,2,3-triazol-5-yl]-5H-pyrido[3,2-b]indol-3-yl}propan-2-ol]	< 1
Cc1nnn(C)c1-c1ccc2c3ncc(C(=O)O)cc3n([C@H](c3ccccc3F)C3CCOCC3)c2c1 [Example 29, 7-(Dimethyl-1H-1,2,3-triazol-5-yl)-5-[(S)-(2-fluorophenyl)(oxan-4-yl)methyl]-5H-pyrido[3,2-b]indole-3-carboxylic acid]	< 5
[2H]C([2H])([2H])c1nnn(C)c1-c1cc2c(cc1F)c1ncc(C(C)(C)O)cc1n2C(c1ncccc1C)C1CCOCC1 (single isomer, unassigned) [Example 43, 2-{8-fluoro-7-[4-(^2H3)methyl-1-methyl-1H-1,2,3-triazol-5-yl]-5-[(3-methylpyridin-2-yl)(oxan-4-yl)methyl}-5H-pyrido[3,2-b]indol-3-yl]propan-2-ol]	< 5
Cc1nnn(C)c1-c1cc2c(cc1F)c1ncc(S(C)(=O)=O)cc1n2[C@H](c1ccccc1F)C1CCOCC1 [Example 25, 5-{8-Fluoro-5-[(S)-(2-fluorophenyl)(oxan-4-yl)methyl]-3-methanesulfonyl-5H-pyrido[3,2-b]indol-7-yl}-1,4-dimethyl-1H-1,2,3-triazole]	< 1
[2H]C([2H])([2H])c1nnn(C)c1-c1cc2c(cc1F)c1ncc(C(C)(C)O)cc1n2C(c1cc(F)ccn1)C1CCOCC1 (racemic) [Example 60, 2-{8-fluoro-5-[(4-fluoropyridin-2-yl)(oxan-4-yl)methyl]-7-[4-(^2H3)methyl-1-methyl-1H-1,2,3-triazol-5-yl]-5H-pyrido[3,2-b]indol-3-yl}propan-2-ol]	< 5
[2H]C([2H])([2H])c1nnn(C)c1-c1cc2c(cc1Cl)c1ncc(C(C)(C)O)cc1n2C(c1ncccc1F)C1CCOCC1 (single isomer, unassigned) [Example 75, 2-{8-Chloro-5-[(3-fluoropyridin-2-yl)(oxan-4-yl)methyl]-7-[4-(^2H3)methyl-1-methyl-1H-1,2,3-triazol-5-yl]-5H-pyrido[3,2-b]indol-3-yl}propan-2-ol]	< 1500
[2H]C([2H])([2H])c1nnn(C)c1-c1cc2c(cc1F)c1ncc(S(C)(=O)=O)cc1n2[C@H](c1ccccc1F)C1CCOCC1 [Example 28, 5-{8-Fluoro-5-[(S)-(2-fluorophenyl)(oxan-4-yl)methyl]-3-methanesulfonyl-5H-pyrido[3,2-b]indol-7-yl}-4-(^2H3)methyl-1-methyl-1H-1,2,3-triazole]	< 1
[2H]C([2H])([2H])c1nnn(C)c1-c1cc2c(cc1Cl)c1ncc(C(C)(C)O)cc1n2C(c1ncccc1F)C1CCOCC1 (single isomer, unassigned) [Example 76, 2-{8-Chloro-5-[(3-fluoropyridin-2-yl)(oxan-4-yl)methyl]-7-[4-(^2H3)methyl-1-methyl-1H-1,2,3-triazol-5-yl]-5H-pyrido[3,2-b]indol-3-yl}propan-2-ol]	< 1500
[2H]C([2H])([2H])c1nnn(C)c1-c1cc2c(cc1F)c1ncc(C(C)(C)O)cc1n2C(CCC)c1ccccn1 (single isomer, unassigned) [Example 49, 2-{8-fluoro-7-[4-(^2H3)methyl-1-methyl-1H-1,2,3-triazol-5-yl]-5-[1-(pyridin-2-yl)butyl]-5H-pyrido[3,2-b]indol-3-yl}propan-2-ol]	< 5
[2H]C([2H])([2H])c1nnn(C)c1-c1ccc2c3ncc(C(C)(C)O)cc3n(C(c3cc(C)on3)C3CCOCC3)c2c1 (single isomer, unassigned) [Example 73, 2-{5-[(5-methyl-1,2-oxazol-3-yl)(oxan-4-yl)methyl]-7-[4-(^2H3)methyl-1-methyl-1H-1,2,3-triazol-5-yl]-5H-pyrido[3,2-b]indol-3-yl}propan-2-ol]	< 5
[2H]C([2H])([2H])c1nnn(C)c1-c1cc2c(cc1F)c1ncc(C(C)(C)O)cc1n2C(c1ccccn1)C1CCOCC1 (single isomer, unassigned) [Example 37, 2-{8-fluoro-7-[4-(^2H3)methyl-1-methyl-1H-1,2,3-triazol-5-yl}-5-[oxan-4-yl(pyridin-2-yl)methyl]-5H-pyrido[3,2-b]indol-3-yl]propan-2-ol]	< 5
Cc1nnn(C)c1-c1cc(F)c2c3ncc(C(C)(C)O)cc3n(C(CCC(F)(F)F)CCC(F)(F)F)c2c1 [Example 10, 2-[7-(Dimethyl-1H-1,2,3-triazol-5-yl)-9-fluoro-5-(1,1,1,7,7,7-hexafluoroheptan-4-yl)-5H-pyrido[3,2-b]indol-3-yl]propan-2-ol]	< 5
Cc1nnn(C)c1-c1ccc2c3ncc(C(C)(C)O)cc3n(C(CCC(F)(F)F)c3ccccn3)c2c1 (single isomer, unassigned) [Example 7, 2-[7-(dimethyl-1H-1,2,3-triazol-5-yl)-5-[4,4,4-trifluoro-1-(pyridin-2-yl)butyl]-5H-pyrido[3,2-b]indol-3-yl]propan-2-ol]	< 5
[2H]C([2H])([2H])c1nnn(C)c1-c1cc2c(cc1F)c1ncc(C(C)(C)O)cc1n2[C@H](c1ccccc1)C1CCOCC1 [Example 32, 2-{8-Fluoro-7-[4-(^2H3)methyl-1-methyl-1H-1,2,3-triazol-5-yl]-5-[(S)-(oxan-4-yl)(phenyl)methyl]-5H-pyrido[3,2-b]indol-3-yl}propan-2-ol]	< 1
Cc1nnn(C)c1-c1cc2c(cc1F)c1ncc(C(C)(C)O)cc1n2C(c1ncccn1)C1CCOCC1 (single isomer, unassigned) [Example 54]	< 5
[2H]C([2H])([2H])c1nnn(C)c1-c1cc2c(cc1Cl)c1ncc(C(C)(C)O)cc1n2[C@H](c1ccccc1)C1CCOCC1 [Example 77, 2-{8-chloro-7-[4-(^2H3)methyl-1-methyl-1H-1,2,3-triazol-5-yl]-5-[(S)-oxan-4-yl(phenyl)methyl]-5H-pyrido[3,2-b]indol-3-yl}propan-2-ol]	< 1500
[2H]C([2H])([2H])c1nnn(C)c1-c1cc2c(cc1F)c1ncc(C(C)(C)O)cc1n2C(c1ccccc1)C1COC1 (single isomer, unassigned) [Example 68, 2-{8-fluoro-7-[4-(^2H3)methyl-1-methyl-1H-1,2,3-triazol-5-yl]-5-[oxetan-3-yl(phenyl)methyl]-5H-pyrido[3,2-b]indol-3-yl}propan-2-ol]	< 1500
[2H]C([2H])([2H])c1nnn(C)c1-c1cc2c(cc1Cl)c1ncc(C(C)(C)O)cc1n2C(c1ccccn1)C1CCOCC1 (single isomer, unassigned) [Example 80, 2-{8-chloro-7-[4-(^2H3)methyl-1-methyl-1H-1,2,3-triazol-5-yl]-5-[oxan-4-yl(pyridin-2-yl)methyl]-5H-pyrido[3,2-b]indol-3-yl}propan-2-ol]	< 1500
[2H]C([2H])([2H])c1nnn(C)c1-c1cc2c(cc1F)c1ncc(C(C)(C)O)cc1n2C(c1ccc(C)cn1)C1CCOCC1 (single isomer, unassigned) [Example 56, 2-{8-fluoro-7-[4-(^2H3)methyl-1-methyl-1H-1,2,3-triazol-5-yl]-5-[(5-methylpyridin-2-yl)(oxan-4-yl)methyl]-5H-pyrido[3,2-b]indol-3-yl}propan-2-ol]	< 5
[2H]C([2H])([2H])c1nnn(C)c1-c1cc2c(cc1F)c1ncc(C(C)(C)O)cc1n2C(CCOC)c1ccccc1 (single isomer, unassigned) [Example 63, 2-[8-fluoro-5-(3-methoxy-1-phenylpropyl)-7-[4-(^2H3)methyl-1-methyl-1H-1,2,3-triazol-5-yl]-5H-pyrido[3,2-b]indol-3-yl]propan-2-ol]	< 5
[2H]C([2H])([2H])c1nnn(C)c1-c1cc2c(cc1F)c1ncc(C(C)(C)O)cc1n2C(CCC)c1ccc(F)cn1 (single isomer, unassigned) [Example 59, 2-{8-fluoro-5-[1-(5-fluoropyridin-2-yl)butyl]-7-[4-(^2H3)methyl-1-methyl-1H-1,2,3-triazol-5-yl]-5H-pyrido[3,2-b]indol-3-yl}propan-2-ol]	< 5
Cc1ccc2c(n1)c1ccc(-c3c(C)noc3C)cc1n2Cc1ccccc1 [Example 2, 4-{5-Benzyl-2-methyl-5H-pyrido[3,2-b]indol-7-yl}-3,5-dimethyl-1,2-oxazole]	< 1500
Cc1nnn(C)c1-c1cc2c(cc1F)c1ncc(C(C)(C)O)cc1n2[C@H](c1ccccc1F)C1CCOCC1 [Example 21, 2-[7-(Dimethyl-1H-1,2,3-triazol-5-yl)-8-fluoro-5-[(S)-(2-fluorophenyl)(oxan-4-yl)methyl]-5H-pyrido[3,2-b]indol-3-yl]propan-2-ol]	< 1
